According to patent US8551452B2, “Uridine dietary supplementation compliance methods and use thereof” (Massachusetts Institute of Technology, priority 2007, dated 2013):

Assays:
[1] = Localized in vivo 1H MRS of parietal white matter and occipital gray matter (1.5T) for cytidine levels; conditions: brain cytidine-containing metabolites, brain water as internal reference
Protocol: All MRI scans and localized in vivo ^1H MRS procedures are performed on a system equipped with shielded gradients (GE 1.5T Signa; General Electric Medical Systems; Milwaukee, Wis.) from 9 PM to midnight. Spectroscopy is performed following a routine brain MRI analysis, and the T2-weighted images are used for localization of an area of interest. […]
The major metabolites detectable in ^1H MRS are CDP choline, cytidine, cytidine 5′-monophosphate (CMP), cytidine 5′-diphosphate (CDP), cytidine 5′-triphosphate (CTP), deoxycytidine 5′-monophosphate (dCMP), deoxycytidine 5′-diphosphate (dCDP), deoxycytidine 5′-triphosphate (dCTP). […] The areas under the peaks is measured by Lorenzian line-shape fitting. The absolute concentrations of CDP choline, cytidine, cytidine 5′-monophosphate (CMP), cytidine 5′-diphosphate (CDP), cytidine 5′-triphosphate (CTP), deoxycytidine 5′-monophosphate (dCMP), deoxycytidine 5′-diphosphate (dCDP), deoxycytidine 5′-triphosphate (dCTP) is calculated from the processed spectrum using the brain water as an internal reference. All concentrations are expressed as millimoles per weight of uridine taken. The reference brain water signals used is fixed in the PWM and in the OGM, as calculated.

[2] = 1H-MRS of the hippocampus (3T, PRESS), metabolite ratios to administered uridine; format: in vivo; conditions: brain cytidine-containing metabolites (CDP choline, cytidine, CMP, CDP, CTP, dCMP, dCDP, dCTP) as ratio of administered uridine, left and right hippocampus
Protocol: MRI and ^1H-MRS are performed on a 3T scanner. Anatomical MR images are obtained in the coronal plane using a 3D magnetization-prepared rapid gradient echo (MPRAGE) sequence. The sequence is acquired with a field of view of 16 cm, 32 slices with a 3-mm slice thickness, 256×256 matrix size 600-msec inversion time, repetition time (TR) of 8 msec, echo time (TE) of 3 msec, a bandwidth of 32 kHz, and 1 excitation. These images are used to select graphically the left and right hippocampus for solvent suppressed ^1H-MRS. Single-voxel ^1H-MRS of the hippocampus is performed using point-resolved spectroscopy (PRESS). […]
Analysis is performed on the main metabolites detected by MRS, that is, CDP choline, cytidine, cytidine 5′-monophosphate (CMP), cytidine 5′-diphosphate (CDP), cytidine 5′-triphosphate (CTP), deoxycytidine 5′-monophosphate (dCMP) , deoxycytidine 5′-diphosphate (dCDP), deoxycytidine 5′-triphosphate (dCTP), all expressed as a ratio of the administered uridine (Ur). When modeling the overall correlation between the administered uridine or uridine source and metabolite ratios, the measurements of metabolite ratios from the hippocampus on both sides of the brain of each subject analyzed by using repeated measures, with a compound symmetry covariance structure, to account for the within subject correlation.

[3] = Localized 13C MRS measurement of in vivo 13C cytidine in brain (9.4 T); conditions: in vivo 13C brain cytidine content, external reference method
Protocol: All in vivo MRS studies are performed in a horizontal 9.4-T/31-cm magnet (Magnex Scientific, UK) with an 11-cm-diameter gradient coil capable of switching to 300 mT/m in 500 μs, interfaced with an INOVA console (Varian Inc., Calif., USA). A quadrature ^1H radiofrequency (RF) 14-mm-diameter coil and a linear polarized, three-turn 11-mm-diameter ^13C RF coil are used as the transceiver. A sphere containing 99% ^13C-enriched glucose (Glu) is located at the center of the ^13C coil as an external reference, and the coil is placed on the subject's head. Fast Automatic Shimming Technique by Mapping Along Projections (FASTMAP) shimming with echo-planar imaging (EPI) readout is applied to adjust B0 field homogeneity in a initially nominal ˜440 μL volume of interest (VOI). The Single-shot Inversion Recovery based Non-Echo (SIRENE) sequence is applied for 3D localization with optimized outer volume suppression to ensure elimination of signals from noncerebral tissue, and bilevel WALTZ-16 RF pulses are applied at the water frequency for generation of a nuclear Overhauser effect (NOE) and for decoupling during acquisition.
Twelve 64-scan localized ^13C MR spectra (repetition time (TR)=1 s) acquired and are summed, apodized by 20-Hz exponential line-broadening, zero-filled, and Fourier transformed. […] In vivo ^13C brain cytidine content ([^13C-Cyt]invivo) is calculated.

Measured: increase in metabolite ratio as a function of administered uridine or uridine source

O=c1ccn([C@@H]2O[C@H](CO)[C@@H](O)[C@H]2O)c(=O)[nH]1 [uridine]
direct correlation: all assays above
